Structures can show the parent of a compound that is named as a salt.

Chain of IRAK-4 (Q9NWZ3 whole entry, species assumed): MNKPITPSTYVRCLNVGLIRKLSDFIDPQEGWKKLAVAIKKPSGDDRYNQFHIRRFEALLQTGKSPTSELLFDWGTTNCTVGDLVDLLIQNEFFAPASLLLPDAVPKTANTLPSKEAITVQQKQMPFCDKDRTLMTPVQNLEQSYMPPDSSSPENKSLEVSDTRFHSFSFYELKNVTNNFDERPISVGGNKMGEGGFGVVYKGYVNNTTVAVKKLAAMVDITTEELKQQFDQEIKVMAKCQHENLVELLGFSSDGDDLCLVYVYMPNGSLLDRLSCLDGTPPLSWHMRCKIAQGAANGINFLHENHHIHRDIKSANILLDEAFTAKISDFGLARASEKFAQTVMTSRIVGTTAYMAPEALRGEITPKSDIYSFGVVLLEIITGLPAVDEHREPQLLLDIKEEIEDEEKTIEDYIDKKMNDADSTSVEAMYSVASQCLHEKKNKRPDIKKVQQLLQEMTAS

The target of the assay is IRAK-4 (Homo sapiens (Human), UniProt Q9NWZ3). As to the kind of experiment: In vitro IRAK-4 kinase assay. It is filed as biochemical. As to conditions: purified recombinant IRAK-4, 50 uM ATP, 33P peptide phosphorylation. The procedure:
Purified recombinant IRAK-4 protein was incubated with 250 uM synthetic peptide ([…]) in 30 ul of kinase buffer including (20 mM MOPS pH7.2, 25 mM beta glycerol phosphate, 5 mM EGTA, 1 mM sodium orthovanadate, 1 mM DTT, 50 uM ATP, 20 mM MgCl2, 10 uCi γ-^33P, 0.1% BSA) for the indicated time. For purified recombinant IRAK-1 protein kinase assay, 50 uM ATP was used. A 25 ul aliquot of the reaction mixture was transferred on to p81 phosphocellulose squares (Upstate Biotechnology, Lake Placid, N.Y.). The assay squares were washed three times with 0.75% phosphoric acid and once with acetone. Enzyme activity was measured by determining the bound radioactivity by liquid scintillation counting.
For `CN(C)c1ccc(Cl)cc1NC(=O)c1cnn2cccnc12` [Example 108, Pyrazolo[1,5-alpha]pyrimidine-3-carboxylic acid (5-chloro-2-dimethylamino-phenyl)-amide], the IC50 worked out at 739 nM.

In the case of `COc1cc2ccccc2cc1NC(=O)c1cnn2cccnc12` [Example 104, Pyrazolo[1,5-alpha]pyrimidine-3-carboxylic acid (3-methoxy-naphthalen-2-yl)-amide], the IC50 was 613 nM.

Consider `O=C(Nc1cc(Cl)ccc1OC(F)F)c1cnn2cccnc12` [Example 107, Pyrazolo[1,5-alpha]pyrimidine-3-carboxylic acid (5-chloro-2-difluoromethoxy-phenyl)-amide], for which the IC50 amounted to 717 nM.

For `NC(=O)c1cnc2c(C(=O)Nc3cc(Cl)ccc3OC3CCC(O)CC3)cnn2c1` (stereo not drawn) [Example 52, Pyrazolo[1,5-alpha]pyrimidine-3,6-dicarboxylic acid 6-amide-3-{[5-chloro-2-(4-hydroxy-cyclohexyloxy)-phenyl]-amide}], the IC50 was found to be 107 nM.

Regarding `Nc1cccc(NC(=O)c2cnn3cccnc23)c1N1CCCCC1` [Example 63, Pyrazolo[1,5-alpha]pyrimidine-3-carboxylic acid (3-amino-2-piperidin-1-yl-phenyl)-amide], the half-maximal inhibitory concentration (IC50) was 156 nM.

For `O=C1Cc2cc(N3CCCCC3)c(NC(=O)c3cnn4cccnc34)cc2N1` [Example 48, Pyrazolo[1,5-alpha]pyrimidine-3-carboxylic acid (2-oxo-5-piperidin-1-yl-2,3-dihydro-1H-indol-6-yl)-amide], the IC50 is 98 nM.

As to `O=C(Nc1cc(Cl)ccc1N1CCCCCC1)c1cnn2cccnc12` [Example 119, Pyrazolo[1,5-alpha]pyrimidine-3-carboxylic acid (2-azepan 1-yl-5-chloro-phenyl)-amide], the half-inhibitory concentration (IC50) was found to be 1500 nM.

Regarding `C=Cc1ccc(OC)c(NC(=O)c2cnn3cccnc23)c1` [Example 143, Pyrazolo[1,5-alpha]pyrimidine-3-carboxylic acid (2-methoxy-5-vinyl-phenyl)-amide], the IC50 came out at 2750 nM.

Take `O=C(Nc1ccc2ncccc2c1)c1csc2cnc(NCCO)nc12` [Example 75, 2-(2-Hydroxy-ethylamino)-thieno[3,2-d]pyrimidine-7-carboxylic acid quinolin-6-ylamide]: the IC50 was determined as 300 nM.

With `COc1cc2ncccc2cc1NC(=O)c1cnn2cccnc12` [Example 33, Pyrazolo[1,{tildeover (5)}alpha] pyrimidine-3-carboxylic acid (7-methoxy-quinolin-6-yl)-amide], the IC50 amounted to 43 nM.

For the molecule `CN1CCN(c2ccc(Cl)cc2NC(=O)c2cnn3cccnc23)CC1` [Example 97, Pyrazolo[1,5-alpha]pyrimidine-3-carboxylic acid [5-chloro-2-(4-methyl-piperazin-1-yl)-phenyl]-amide], the IC50 came to 512 nM.

Regarding `COC(=O)COc1ccc(Cl)cc1NC(=O)c1cnn2cccnc12` [Example 160, {4-Chloro-2-[(pyrazolo[1,5-alpha]pyrimidine-3-carbonyl)-amino]-phenoxy}-acetic acid methyl ester], the IC50 worked out at 4300 nM.

`O=C(Nc1cc2cccnc2cc1OC1CCNC1)c1csc2cncnc12` (centres unmarked) [Example 88, Thieno[3,2-d]pyrimidine-7-carboxylic acid [7-(pyrrolidin-3-yloxy)-quinolin-6-yl]-amide hydrochloride]: the IC50 was found to be 455 nM.

Turning to `O=C(Nc1cc(Cl)ccc1Oc1ccc(O)cc1)c1cnn2cccnc12` [Example 130, Pyrazolo[1,5-alpha]pyrimidine-3-carboxylic acid [5-chloro-2-(4-hydroxy-phenoxy)-phenyl]-amide], the IC50 amounted to 2220 nM.

Regarding `COc1cc2cc(C)[nH]c2cc1NC(=O)c1cnn2cccnc12` [Example 72, Pyrazolo[1,5-alpha]pyrimidine-3-carboxylic acid (5-methoxy-2-methyl-1H-indol-6-yl)-amide], the IC50 came to 255 nM.

As to `O=C(Nc1cc(Cl)ccc1-c1ccccc1)c1cnn2cccnc12` [Example 100, Pyrazolo[1,5-alpha]pyrimidine-3-carboxylic acid (4-chloro-biphenyl-2-yl)-amide], the IC50 amounted to 534 nM.

Consider `COc1cnc2c(C(=O)Nc3cc(Cl)ccc3N3CCC(CO)CC3)cnn2c1` [Example 29], for which the IC50 was determined as 33 nM.

As for `O=C(Nc1cc(Cl)ccc1OC1CCC(CO)C1)c1cnn2cccnc12` (stereo not drawn) [Example 77, Pyrazolo[1,5-alpha]pyrimidine-3-carboxylic acid [5-chloro-2-(3-hydroxymethyl-cyclopentyloxy)-phenyl]-amide], the half-inhibitory concentration (IC50) is 306 nM.

With `NCC1CCN(c2ccc(Cl)cc2NC(=O)c2cnn3cccnc23)CC1` [Example 31, Pyrazolo[1,{tildeover (5)}alpha] pyrimidine-3-carboxylic acid [2-(4-aminomethyl-piperidin-1-yl)-5-chloro-phenyl]-amide], the IC50 was found to be 37 nM.

For `O=C(Nc1cc(Cl)ccc1OC1CCC(O)CC1)c1cnn2cc(Br)cnc12` (stereo not drawn) [Example 61, 6-Bromo-pyrazolo[1,5-alpha]pyrimidine-3-carboxylic acid [5-chloro-2-(4-hydroxy-cyclohexyloxy)-phenyl]-amide], the 50% inhibitory concentration (IC50) came to 137 nM.

As for `O=C(Nc1cc2cccnc2cc1OC1CCNCC1)c1cnn2cccnc12` [Example 32, Pyrazolo[1,5-alpha]pyrimidine-3-carboxylic acid [7-(piperidin-4-yloxy)-quinolin-6-yl]-amide hydrochloride], the IC50 is 40 nM.

As for `COc1ccc(Cl)cc1NC(=O)c1csc2cnc(NCCO)nc12` [Example 132, 2-(2-Hydroxy-ethylamino)-thieno[3,2-d]pyrimidine-7-carboxylic acid (5-chloro-2-methoxy-phenyl)-amide], the IC50 came to 2240 nM.

For `CSc1ccc(Cl)cc1NC(=O)c1cnn2cccnc12` [Example 111, Pyrazolo[1,5-alpha]pyrimidine-3-carboxylic acid (5-chloro-2-methylsulfanyl-phenyl)-amide], the IC50 was determined as 798 nM.

In the case of `COc1cc(C(=O)Nc2ccccc2)ccc1NC(=O)c1cnn2cccnc12` [Example 89, Pyrazolo[1,5-alpha]pyrimidine-3-carboxylic acid (2-methoxy-4-phenylcarbamoyl-phenyl)-amide], the IC50 is 455 nM.

In the case of `CC[C@@H](CO)Nc1ncc2scc(C(=O)Nc3cc(Cl)ccc3OC)c2n1` [Example 131, 2-(1-Hydroxymethyl-propylamino)-thieno[3,2-d]pyrimidine-7-carboxylic acid (5-chloro-2-methoxy-phenyl)-amide], the IC50 worked out at 2230 nM.

As for `CC(C)(CCO)Oc1ccc(Cl)cc1NC(=O)c1csc2cncnc12` [Example 117, Thieno[3,2-d]pyrimidine-7-carboxylic acid [5-chloro-2-(3-hydroxy-1,1-dimethyl-propoxy)-phenyl]-amide], the IC50 is 1460 nM.

Turning to `CCc1ccc(OC)c(NC(=O)c2cnn3cccnc23)c1` [Example 166, Pyrazolo[1,5-alpha]pyrimidine-3-carboxylic acid (5-ethyl-2-methoxy-phenyl)-amide], the IC50 was 5880 nM.

Regarding `COc1cc2ncccc2cc1NC(=O)c1csc2cnc(NCCCN)nc12` [Example 50, 2-(3-Amino-propylamino)-thieno[3,2-d]pyrimidine-7-carboxylic acid (7-methoxy-quinolin-6-yl)-amide], the IC50 was found to be 101 nM.

On to `COc1ccccc1NC(=O)c1csc2cncnc12` [Example 169, Thieno[3,2-d]pyrimidine-7-carboxylic acid (2-methoxy-phenyl)-amide], for which the IC50 was found to be 6560 nM.

In the case of `NC1CCN(c2ccc(Cl)cc2NC(=O)c2cnn3cccnc23)C1` (stereo not drawn) [Example 109, Pyrazolo[1,5-alpha]pyrimidine-3-carboxylic acid [2-(3-amino-pyrrolidin-1-yl)-5-chloro-phenyl]-amide], the IC50 worked out at 766 nM.

Turning to “2-(cis-2-amino-cyclohexylamino)-thieno[3,2-d]pyrimidine-7-carboxylic acid (5,6-dimethoxy-pyridin-2-yl)-amide [Example 27]”, the IC50 was determined as 31 nM.

Consider `COc1ccc(C)cc1NC(=O)c1cnn2cccnc12` [Example 153, Pyrazolo[1,5-alpha]pyrimidine-3-carboxylic acid (2-methoxy-5-methyl-phenyl)-amide], for which the IC50 worked out at 3770 nM.

With `Cc1ccn2ncc(C(=O)Nc3cc(Cl)ccc3OC3CCC(O)CC3)c2n1` (stereo not drawn) [Example 170, 5-Methyl-pyrazolo[1,5-alpha]pyrimidine-3-carboxylic acid [5-chloro-2-(4-hydroxy-cyclohexyloxy)-phenyl]-amide], the IC50 came out at 6560 nM.

As for `COc1cnc2c(C(=O)Nc3cc(Cl)ccc3OC3CCC(O)CC3)cnn2c1` (centres unmarked) [Example 76, 6-Methoxy-pyrazolo[1,5-a]pyrimidine-3-carboxylic acid [5-chloro-2-(4-hydroxy-cyclohexyloxy)-phenyl]-amide], the IC50 turned out to be 301 nM.

Take `COc1ccc(Br)cc1NC(=O)c1cnn2cccnc12` [Example 127, Pyrazolo[1,5-alpha]pyrimidine-3-carboxylic acid (5-bromo-2-methoxy-phenyl)-amide]: the IC50 was 2140 nM.

In the case of `COc1ccc(Cl)cc1NC(=O)c1cnn2cccnc12` [Example 123, Pyrazolo[1,5-alpha]pyrimidine-3-carboxylic acid (5-chloro-2-methoxy-phenyl)-amide], the IC50 came out at 1630 nM.

Take `COc1cc2cc[nH]c2cc1NC(=O)c1cnn2cccnc12` [Example 110, Pyrazolo[1,5-alpha]pyrimidine-3-carboxylic acid (5-methoxy-1H-indol-6-yl)-amide]: the IC50 came out at 787 nM.

For the molecule `O=C(Nc1cc(Cl)ccc1OC1CCCC(O)C1)c1cnn2cccnc12` (stereo not drawn) [Example 103, Pyrazolo[1,5-alpha]pyrimidine-3-carboxylic acid [5-chloro-2-(3-hydroxy-cyclohexyloxy)-phenyl]-amide], the IC50 amounted to 605 nM.

A word on the IC50: it is the point on the concentration scale where inhibition reaches its midpoint.

These data come from patent US9255110B2 (Hoffmann-La Roche Inc., priority 2010, dated 2016).
